What was measured:
[1] = test system: Embryoid bodies from the H1 or H9 line
Protocol: Embryoid bodies from the H1 or H9 line were treated at differentiation day 1-4, 4-6 or 6-8 with 5-aza-deoxy-cytidine, a cytosine analog that affects DNA methylation. Cells were harvested at day 15, and analyzed for cardiac MHC by real-time RT-PCR.
Other reagents examined for an ability to induce cardiomyocyte differentiation included dimethyl sulfoxide (DMSO) and all-trans retinoic acid (RA).

[2] = test system: hES-derived cardiomyocytes; assay: Chronotropic effects of cardioactive drugs on beating hES-derived cardiomyocytes; type: cell-based, human; settings: for chronotropic effect on beating rate: FIG. 2 Panels B-E
Protocol: The function of hES-derived cardiomyocytes was tested by determining whether the cardiomyocytes respond appropriately to the chronotropic effects of cardioactive drugs.
When cells were treated with 10^−5 M diltiazem, 100% of the beating areas stopped contraction. […] Thus, the hES cell derived cells respond to cardioactive drugs in a manner appropriate for cells of the cardiomyocyte lineage.

## Nc1ncn([C@H]2C[C@H](O)[C@@H](CO)O2)c(=O)n1 [5-aza-deoxy-cytidine]
[1]; 1 to 10 μM at day 6-8
  proportion of beating areas in the culture: increased
[1]; 1 to 10 μM at day 6-8, harvested day 15, real-time RT-PCR
  expression of cardiac α-MHC: significantly increased

## C[S+](C)[O-] [DMSO, dimethyl sulfoxide]
[1]; 0.5% from days 0-4
  beating areas vs non-treated cultures: fewer beating areas
[1]; 0.8% or 1%
  beating cells: absent
[1]; DMSO treatment
  α-MHC expression compared with untreated cultures: significant reduction

## CC1=C(/C=C/C(C)=C/C=C/C(C)=C/C(=O)O)C(C)(C)CCC1 [RA, all-trans retinoic acid]
[1]
  toxicity to the cells: toxic
[1]; 10^−9 to 10^−5 M, days 4-8, 8-15, or 4-15
  beating cells compared with untreated cultures: no increase in beating cells

## COc1ccc([C@@H]2Sc3ccccc3N(CCN(C)C)C(=O)[C@@H]2OC(C)=O)cc1 [diltiazem]
[2]; FIG. 2 Panel A, concentration-dependent
  beating rate: inhibited

## CC(C)NCC(O)c1ccc(O)c(O)c1 (stereo not shown) [isoprenaline]
[2]
  chronotropic effect on beating rate: positive chronotropic effects

## CNC[C@H](O)c1cccc(O)c1 [phenylephrine]
[2]
  chronotropic effect on beating rate: positive chronotropic effects

From patent publication US7897389B2, “Direct differentiation method for making cardiomyocytes from human embryonic stem cells” (Geron Corporation, priority 2008, dated 2011)
